Legend:
Format in all cases: binding
panel of 442 kinases [1] = molecular target: T1, panel of 442 kinases (Homo sapiens, UniProt P00533, G719C); conditions: Compound Concentration 10 µM
T1 construct: purchased KINOMEscan
Source text: (§1) We assessed the selectivity of members of this scaffold using the KINOMEscan methodology across a near comprehensive panel of 442 kinases [[18,27]].

panel of 442 kinases [2] = molecular target: T2, panel of 442 kinases (Homo sapiens, UniProt Q9UEW8); conditions: kinase STK39; compound concentration 10 µM
T2 construct: purchased KINOMEscan
Source text: as §1

panel of 442 kinases [3] = molecular target: T3, panel of 442 kinases (Homo sapiens, UniProt Q9Y616); conditions: Compound Concentration 10 µM
T3 construct: purchased KINOMEscan
T3 sequence (Q9Y616 1-596): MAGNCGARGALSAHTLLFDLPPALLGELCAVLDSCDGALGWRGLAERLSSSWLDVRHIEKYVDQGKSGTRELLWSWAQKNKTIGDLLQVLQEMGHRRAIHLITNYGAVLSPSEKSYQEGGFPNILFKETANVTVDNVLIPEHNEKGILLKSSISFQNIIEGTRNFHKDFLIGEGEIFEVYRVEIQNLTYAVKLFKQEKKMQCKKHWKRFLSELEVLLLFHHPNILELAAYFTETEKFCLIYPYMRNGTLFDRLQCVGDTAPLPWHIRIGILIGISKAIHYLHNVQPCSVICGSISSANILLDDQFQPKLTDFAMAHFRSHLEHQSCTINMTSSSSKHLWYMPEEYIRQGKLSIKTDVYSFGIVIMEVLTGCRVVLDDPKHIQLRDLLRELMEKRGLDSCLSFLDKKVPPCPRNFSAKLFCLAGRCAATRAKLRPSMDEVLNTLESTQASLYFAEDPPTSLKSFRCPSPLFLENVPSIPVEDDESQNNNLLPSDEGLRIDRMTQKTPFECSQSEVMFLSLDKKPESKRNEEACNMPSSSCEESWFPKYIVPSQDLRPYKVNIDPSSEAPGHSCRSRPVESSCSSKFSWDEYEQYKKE
Source text: as §1

T1 sequence (P00533 25-1210 G719C): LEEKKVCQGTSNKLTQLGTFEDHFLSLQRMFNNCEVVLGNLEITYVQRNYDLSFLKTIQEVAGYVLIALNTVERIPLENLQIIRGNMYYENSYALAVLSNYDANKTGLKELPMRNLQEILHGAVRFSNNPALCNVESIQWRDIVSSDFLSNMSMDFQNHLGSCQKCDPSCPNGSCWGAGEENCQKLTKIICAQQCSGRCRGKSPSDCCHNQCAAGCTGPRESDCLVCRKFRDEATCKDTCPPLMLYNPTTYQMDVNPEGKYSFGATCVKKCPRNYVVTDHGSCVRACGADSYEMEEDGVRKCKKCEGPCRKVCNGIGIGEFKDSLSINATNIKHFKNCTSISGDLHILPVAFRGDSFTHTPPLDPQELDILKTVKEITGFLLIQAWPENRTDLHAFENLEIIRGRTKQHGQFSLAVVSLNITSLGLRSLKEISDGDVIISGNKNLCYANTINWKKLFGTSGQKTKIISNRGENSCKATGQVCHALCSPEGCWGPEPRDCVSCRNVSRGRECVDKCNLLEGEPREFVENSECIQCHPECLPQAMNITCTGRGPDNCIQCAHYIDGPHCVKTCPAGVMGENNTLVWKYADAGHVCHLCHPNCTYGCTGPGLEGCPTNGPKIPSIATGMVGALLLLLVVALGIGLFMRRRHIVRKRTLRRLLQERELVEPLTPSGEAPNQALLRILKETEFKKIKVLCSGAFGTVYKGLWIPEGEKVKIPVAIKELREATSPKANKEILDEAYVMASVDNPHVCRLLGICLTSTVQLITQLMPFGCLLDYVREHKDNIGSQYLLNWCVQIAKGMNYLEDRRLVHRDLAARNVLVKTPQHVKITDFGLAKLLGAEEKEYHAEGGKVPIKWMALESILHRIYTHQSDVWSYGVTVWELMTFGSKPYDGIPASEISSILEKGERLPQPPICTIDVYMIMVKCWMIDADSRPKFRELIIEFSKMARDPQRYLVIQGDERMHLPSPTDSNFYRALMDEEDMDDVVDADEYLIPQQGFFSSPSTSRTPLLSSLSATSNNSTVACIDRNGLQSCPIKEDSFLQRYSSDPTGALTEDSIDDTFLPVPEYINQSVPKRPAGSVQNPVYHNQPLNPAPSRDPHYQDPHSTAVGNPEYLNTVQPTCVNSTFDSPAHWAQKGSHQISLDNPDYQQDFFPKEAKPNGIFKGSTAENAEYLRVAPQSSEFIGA

Structure (SMILES): CCOc1cc(C(=O)N2CCC(N3CCN(C)CC3)CC2)ccc1Nc1ncc2c(n1)N(C1CCCC1)c1ccccc1C(=O)N2C [Compound 26]
- KINOMEscan: EGFR(G719C) (panel of 442 kinases [1]): 100
- % Ctrl, STK39 (panel of 442 kinases [2]): 100 % Ctrl
- KINOMEscan: IRAK3 (panel of 442 kinases [3]): 100

Structure (SMILES): COc1cc(C(=O)N2CCC(N3CCN(C)CC3)CC2)ccc1Nc1ncc2c(n1)N1CCc3cccc(c31)C(=O)N2C [Compound 24]
- KINOMEscan: EGFR(G719C) (panel of 442 kinases [1]): 66
- % Ctrl, STK39 (panel of 442 kinases [2]): 100 % Ctrl

Structure (SMILES): COc1cc(C(=O)N2CCC(N3CCN(C)CC3)CC2)ccc1Nc1ncc2c(n1)N(C)c1ccccc1C(=O)N2C [15 (LRRK2-IN-1)]
- KINOMEscan: EGFR(G719C) (panel of 442 kinases [1]): 100
- % Ctrl, STK39 (panel of 442 kinases [2]): 39 % Ctrl
- KINOMEscan: IRAK3 (panel of 442 kinases [3]): 100

Structure (SMILES): COc1cc(C(=O)N2CCC(N3CCN(C)CC3)CC2)ccc1Nc1ncc2c(n1)N(C1CCCC1)c1ccccc1C(=O)N2C [Compound 25, 11-cyclopentyl-2-((2-methoxy-4-(4-(4-methylpiperazin-1-yl)piperidine-1-carbonyl)phenyl)amino)-5-methyl-5H-benzo[e]pyrimido[5,4-b][1,4]diazepin-6(11H)-one]
- KINOMEscan: EGFR(G719C) (panel of 442 kinases [1]): 71
- % Ctrl, STK39 (panel of 442 kinases [2]): 100 % Ctrl
- KINOMEscan: IRAK3 (panel of 442 kinases [3]): 100

Source: PMC3914206
